Laboratory results from US12410191B2, “Macrolide derivatives, preparation method and application thereof” (ZHEJIANG HISUN PHARMACEUTICAL CO., LTD., priority 2019, dated 2025).
Where two headings read alike, the source gives them in different places.

How the values were obtained:
[1] = amide bond, pentafluorophenyl diphenylphosphinate (FDPP), dichloromethane, 25.0 °C
[2] = Pharmacokinetic study on ICR mice; assay type: in vivo
Method: ICR mice, male, 29.0 g to 33.8g, purchased from Beijing Charles River Laboratory Animal Technology Co., Ltd.
Intravenous injection group: an appropriate amount of drug was weighed, and added with mixed solvent (DMA: 30% Solutol HS-15: Saline=10:10:80 (v/v/v)) to prepare the drug with a final concentration of 0.2 mg/mL.
Oral gavage administration group: an appropriate amount of drug was weighed, added with an appropriate amount of sodium carboxymethyl cellulose (CMC-Na, containing 0.5% Tween 80), vortex shaked, and ultrasonically prepared into […] suspension.
For ICR mice, each compound to be tested was divided into an intravenous injection group (9 mice in each group) and an intragastric group (9 mice in each group). The ICR mice were fasted overnight and then administered by orbital intravenous injection (administration dose of 1 mg/kg, and administration volume of 5 mL/kg) and administered by intragastric injection (administration dose of 5 mg/kg, and administration volume of 10 mL/kg), and ate 4 hours after administration. 3. Operation
About 0.2 mL of blood was collected via jugular vein before administration and 0.083 hour, 0.25 hour, 0.5 hour, 1 hour, 2 hours, 4 hours, 8 hours, 12 hours and 24 hours after administration, and heparin sodium was used for anticoagulation. The collected blood samples were placed on ice, and plasma was separated by centrifugation (centrifugation condition: 1500 g, 10 minutes). The collected plasma was stored at −40° C. to −20° C. before analysis.
LC-MS/MS was used to determine the contents of different compounds to be tested in mouse plasma after intravenous injection and intragastric administration.

Work on `C[C@H]1Nc2ccn3ncc(c3n2)C(=O)NC[C@@H]2COc3cc(F)cc1c3O2` yielded a ring closure, yield of all isomers ([1]; from C[C@@H](Nc1ccn2ncc(C(=O)O)c2n1)c1cc(F)cc2c1O[C@H](CN)CO2, DIPEA, 215.1 mM, 16.0 h) of 42%.
`C[C@H]1Nc2ccn3ncc(c3n2)C(=O)NCC2(C)Cc3cc(F)cc1c3O2` (stereo partly shown) showed a ring closure, yield of all isomers ([1]; from C[C@@H](Nc1ccn2ncc(C(=O)O)c2n1)c1cc(F)cc2c1OC(C)(CN)C2, DIPEA, 154.8 mM, 16.0 h) of 5.9%.
Compound `C[C@H]1Nc2ccn3ncc(c3n2)C(=O)NCCC2=Cc3cc(F)cc1c3O2` has a ring closure, yield of all isomers ([1]; from C[C@@H](Nc1ccn2ncc(C(=O)O)c2n1)c1cc(F)cc2cc(CCN)oc12, DIPEA, 172.8 mM, 16.0 h) of 25.4%.
With `C[C@H]1Nc2ccn3ncc(c3n2)C(=O)NC[C@@]2(C)Cc3cc(F)cc1c3O2` [Example 8, (3R,11R)-6-fluoro-3,11-dimethyl-10-oxa-2,13,17,18,21-pentaazapentacyclo[13.5.2.1^8,11.0^4,9.0^18,22]tricosa-1(21),4,6,8,15(22),16,19-heptaen-14-one] the ring closure, yield of all isomers ([1]; from C[C@@H](Nc1ccn2ncc(C(=O)O)c2n1)c1cc(F)cc2c1O[C@@](C)(CN)C2, N,N-diisopropylethylamine, 172.0 mM) was 26.3%, the “bioavailability relative to repotrectinib” value [2] was 4.1 times and the “AUC0-∞ relative to repotrectinib” value ([2]; 5 mg/kg oral) was 10.6 times. The “Cmax relative to repotrectinib” value ([2]; 5 mg/kg oral) was 14.7 times.
`C[C@H]1Nc2ccn3ncc(c3n2)C(=O)NCC[C@H]2Cc3cc(F)cc1c3O2` showed a ring closure, yield of all isomers ([1]; from C[C@@H](Nc1ccn2ncc(C(=O)O)c2n1)c1cc(F)cc2c1OC(CCN)C2, DIPEA, 33.0 mM, 16.0 h, 2 steps) of 23.1%.
For `C[C@H]1Nc2ccn3ncc(c3n2)C(=O)NCC[C@@]2(C)Cc3cc(F)cc1c3O2`, the ring closure, yield of all isomers ([1]; from C[C@@H](Nc1ccn2ncc(C(=O)O)c2n1)c1cc(F)cc2c1O[C@@](C)(CCN)C2, N,N-diisopropylethylamine, 131.0 mM) was 18.2%.
With `C[C@H]1Nc2ccn3ncc(c3n2)C(=O)NC[C@]2(C)Cc3cc(F)cc1c3O2` the ring closure, yield of all isomers ([1]; from C[C@@H](Nc1ccn2ncc(C(=O)O)c2n1)c1cc(F)cc2c1O[C@](C)(CN)C2, N,N-diisopropylethylamine, 231.0 mM) was 17.6%.
